How the values were obtained:
Format in all cases: in vivo, Wistar rats
[1] = system: calcium level in the serum; assay: Experiment 1: serum calcium reduction after human calcitonin intravaginal suppository, sucrose fatty acid ester plus citric acid vs each alone; details: for Reduction rate (%) of calcium level in the serum: intravaginal suppository 20 μg, ovariectomized rats
Experimental: To the mixture was added a commercially available base for intravaginal preparation; Witepsol S-55 (which is prepared from Witepsol E-85 so as to give a final intravaginal suppository having a melting point of 36.5° C., manufactured by Hils Co., Ltd., former Diamit Novel Co., Ltd) which was homogenized by previously warming and stirring thereof so as to give an intravaginal suppository with the total weight of 5.00 g. […] The mixture was poured into a tube (inside diameter: about 3 mm) made of teflon at about 40° C., cooled to solidify, and taken out from the tube. The solidified mixture was cut into pieces (weight: 50 mg) to give intravaginal suppositories for rats containing human calcitonin (20 μg/each). There were also obtained two kinds of intravaginal suppositories prepared by adding citric acid (50 mg) only, and prepared by adding a sucrose fatty acid ester (100 mg) only, likewise. There were obtained intravaginal suppositories containing only human calcitonin without citric acid nor a sucrose fatty acid ester, likewise, which are used as control.
(§1) An intravaginal suppository was administered into the rat's vagina, and the blood was collected periodically (2, 4 and 6 hours after administration of the test preparation).
(§2) The serum was separated, and the calcium level in the serum was determined by using a kit for determination of calcium (Calcium C Test Wako; manufactured by Wako Pure Chemical Industries, Ltd.) (n=3).

[2] = system: calcium level in the serum; assay: Experiment 2: effects of various bases on serum calcium reduction; details: for Reduction rate (%) of calcium level in the serum: S-970 + citric acid, intravaginal suppository 20 μg, rats
Experimental: as §1, §2
In the same manner as in Experiment 1, each intravaginal suppository was administered to the rat's vagina, and the blood was collected periodically (2, 4 and 6 hours after administration of intravaginal suppository), and the calcium level in the serum thereof was determined (n=4).

[3] = system: calcium level in the serum; assay: Experiment 3: effects of various sucrose fatty acid esters on serum calcium reduction; details: intravaginal suppository 20 μg, rats
Experimental: as §1, §2
In the same manner, there were prepared various sucrose fatty acid esters having the same HLB value but being combined with a different fatty acid (Table B), and four kinds of intravaginal suppositories for rats were prepared by using each 100 mg of sucrose fatty acid ester.
In the same manner as in Experiment 1, each intravaginal suppository was administered to the rat's vagina, and the blood was collected periodically 2, 4 and 6 hours after administration of intravaginal suppository), and the calcium level in the serum thereof was determined (n=4).

Human calcitonin
Reduction rate (%) of calcium level in the serum ([1]; Control: only human calcitonin, no citric acid nor sucrose fatty acid ester, 2 hr): 2.6%
Reduction rate (%) of calcium level in the serum ([1]; Control: only human calcitonin, no citric acid nor sucrose fatty acid ester, 4 hr): 2.2%
Reduction rate (%) of calcium level in the serum ([1]; Control: only human calcitonin, no citric acid nor sucrose fatty acid ester, 6 hr): 3.8%
Reduction rate (%) of calcium level in the serum ([1]; added: citric acid only, 2 hr): 9.5%
Reduction rate (%) of calcium level in the serum ([1]; added: citric acid only, 4 hr): 8.0%
Reduction rate (%) of calcium level in the serum ([1]; added: citric acid only, 6 hr): 5.7%
Reduction rate (%) of calcium level in the serum ([1]; added: sucrose fatty acid ester (S-970) and citric acid, base Witepsol S-55, 2 hr): 14.9%
Reduction rate (%) of calcium level in the serum ([1]; added: sucrose fatty acid ester (S-970) and citric acid, base Witepsol S-55, 4 hr): 19.5%
Reduction rate (%) of calcium level in the serum ([1]; added: sucrose fatty acid ester (S-970) and citric acid, base Witepsol S-55, 6 hr): 11.1%
Reduction rate (%) of calcium level in the serum ([1]; added: sucrose fatty acid ester (S-970) only, 2 hr): 10.6%
Reduction rate (%) of calcium level in the serum ([1]; added: sucrose fatty acid ester (S-970) only, 4 hr): 10.5%
Reduction rate (%) of calcium level in the serum ([1]; added: sucrose fatty acid ester (S-970) only, 6 hr): 10.7%
calcitonin-absorption promotion effects, on the basis of the reduction rate of the calcium level in the serum ([1]; combination of sucrose fatty acid ester and citric acid compared with either only): far superior
Reduction rate (%) of calcium level in the serum ([2]; base Cacao butter, 2 hr): 12.5%
Reduction rate (%) of calcium level in the serum ([2]; base Cacao butter, 4 hr): 10.7%
Reduction rate (%) of calcium level in the serum ([2]; base Cacao butter, 6 hr): 8.3%
Reduction rate (%) of calcium level in the serum ([2]; base Pharmasol B-105, 2 hr): 13.4%
Reduction rate (%) of calcium level in the serum ([2]; base Pharmasol B-105, 4 hr): 14.8%
Reduction rate (%) of calcium level in the serum ([2]; base Pharmasol B-105, 6 hr): 10.6%
Reduction rate (%) of calcium level in the serum ([2]; base Witepsol H-15, 2 hr): 16.8%
Reduction rate (%) of calcium level in the serum ([2]; base Witepsol H-15, 4 hr): 17.7%
Reduction rate (%) of calcium level in the serum ([2]; base Witepsol H-15, 6 hr): 10.4%
Reduction rate (%) of calcium level in the serum ([2]; base Witepsol S-55, 2 hr): 16.5%
Reduction rate (%) of calcium level in the serum ([2]; base Witepsol S-55, 4 hr): 22.5%
Reduction rate (%) of calcium level in the serum ([2]; base Witepsol S-55, 6 hr): 13.0%
Reduction rate (%) of calcium level in the serum ([2]; base Witepsol W-35, 2 hr): 6.6%
Reduction rate (%) of calcium level in the serum ([2]; base Witepsol W-35, 4 hr): 20.4%
Reduction rate (%) of calcium level in the serum ([2]; base Witepsol W-35, 6 hr): 13.2%
promotion effect on absorption of calcitonin ([2]; combination of sucrose fatty acid ester and citric acid, five bases): extremely excellent promotion effect on absorption of calcitonin regardless of any base to be used
Reduction rate (%) of calcium level in the serum ([3]; Ryoto-Sugar Ester (L-1695), HLB 16, lauric acid, + citric acid, 2 hr): 12.8%
Reduction rate (%) of calcium level in the serum ([3]; Ryoto-Sugar Ester (L-1695), HLB 16, lauric acid, + citric acid, 4 hr): 13.4%
Reduction rate (%) of calcium level in the serum ([3]; Ryoto-Sugar Ester (L-1695), HLB 16, lauric acid, + citric acid, 6 hr): 11.4%
Reduction rate (%) of calcium level in the serum ([3]; Ryoto-Sugar Ester (S-370), HLB 3, stearic acid, + citric acid, 2 hr): 13.4%
Reduction rate (%) of calcium level in the serum ([3]; Ryoto-Sugar Ester (S-370), HLB 3, stearic acid, + citric acid, 4 hr): 18.2%
Reduction rate (%) of calcium level in the serum ([3]; Ryoto-Sugar Ester (S-370), HLB 3, stearic acid, + citric acid, 6 hr): 11.4%
Reduction rate (%) of calcium level in the serum ([3]; Ryoto-Sugar Ester (S-570), HLB 5, stearic acid, + citric acid, 2 hr): 12.8%
Reduction rate (%) of calcium level in the serum ([3]; Ryoto-Sugar Ester (S-570), HLB 5, stearic acid, + citric acid, 4 hr): 17.2%
Reduction rate (%) of calcium level in the serum ([3]; Ryoto-Sugar Ester (S-570), HLB 5, stearic acid, + citric acid, 6 hr): 12.0%
Reduction rate (%) of calcium level in the serum ([3]; Ryoto-Sugar Ester (S-770), HLB 7, stearic acid, + citric acid, 2 hr): 13.6%
Reduction rate (%) of calcium level in the serum ([3]; Ryoto-Sugar Ester (S-770), HLB 7, stearic acid, + citric acid, 4 hr): 14.8%
Reduction rate (%) of calcium level in the serum ([3]; Ryoto-Sugar Ester (S-770), HLB 7, stearic acid, + citric acid, 6 hr): 11.8%
Reduction rate (%) of calcium level in the serum ([3]; Ryoto-Sugar Ester (S-970), HLB 9, stearic acid, + citric acid (Table 3), 2 hr): 12.2%
Reduction rate (%) of calcium level in the serum ([3]; Ryoto-Sugar Ester (S-970), HLB 9, stearic acid, + citric acid (Table 3), 4 hr): 17.4%
Reduction rate (%) of calcium level in the serum ([3]; Ryoto-Sugar Ester (S-970), HLB 9, stearic acid, + citric acid (Table 3), 6 hr): 11.8%
Reduction rate (%) of calcium level in the serum ([3]; Ryoto-Sugar Ester (S-1670), HLB 16, stearic acid, + citric acid, 2 hr): 11.4%
Reduction rate (%) of calcium level in the serum ([3]; Ryoto-Sugar Ester (S-1670), HLB 16, stearic acid, + citric acid, 4 hr): 16.4%
Reduction rate (%) of calcium level in the serum ([3]; Ryoto-Sugar Ester (S-1670), HLB 16, stearic acid, + citric acid, 6 hr): 12.6%
